How the values were obtained:
Assay in all cases: c-Kit assay: Ba/F3 KIT mutant cell viability (Cell Titer-Glo, 72 hours)
Assay type in all cases: cell-based
Conditions in all cases: viability after 72 hours
BAF3 FL KIT EX11DEL = target: T1, BAF3 FL KIT EX11DEL (Homo sapiens, UniProt P10721, cells depend on it, form not given)
T1 construct: BAF3 FL KIT EX11DEL
Protocol: (§1) Generation of DBa/F3 KIT Mutant Engineered Cell Lines
(§2) KIT cDNAs were synthesized by GenScript and cloned into the pLVX-IRES-Puro vector (Clontech). Viral particles were produced by transfecting pLVX-IRES-puro vectors containing KIT mutant genes into HEK293 cells (Invitrogen) using the Trans-Lentiviral ORF Packaging Kit (Thermo Scientific). 48 hours post-transfection, virus-containing supernatants were harvested and incubated for another 48-72 hours with parental Ba/F3 cells (DSMZ) in the presence of 10 ng/mL IL-3 (R&D Systems). Transduced Ba/F3 cells were then selected by IL-3 withdrawal and puromycin (0.5-1 μg/mL, Invitrogen).
(§3) Cell lines (e.g., EX11DEL, EX11DEL/D816H, EX11DEL/T670I, and EX11DEL/V654A) were plated into 384 well plates using RPMI 1640 supplemented with 10% FBS at densities that produced linear growth and incubated at 37° C. in 5% (v/v) CO2. Cells were treated with eight concentrations of compound over a 4-fold dilution (10 μM to 0.61 nM) and viability was assessed using Cell Titer-Glo assay (Promega) after 72 hours. Data were plotted as percent viability relative to vehicle-treated cells. Dose-responses curves were generated and used to calculate IC50 values.

[1] = target: T2, BAF3 FL KIT EX11DEL/D816H (Homo sapiens, UniProt P10721, D816H, cells depend on it, form not given)
T2 construct: BAF3 FL KIT EX11DEL/D816H
Protocol: as §1, §2, §3

[2] = target: T3, BAF3 FL KIT EX11DEL/T670I (Homo sapiens, UniProt P10721, T670I, cells depend on it, form not given)
T3 construct: BAF3 FL KIT EX11DEL/T670I
Protocol: as §1, §2, §3

[3] = target: T4, BAF3 FL KIT EX11DEL/V654A (Homo sapiens, UniProt P10721, V654A, cells depend on it, form not given)
T4 construct: BAF3 FL KIT EX11DEL/V654A
Protocol: as §1, §2, §3

T3 sequence (P10721 with tags, fused parts or gaps DEL557-558/T670I, form open): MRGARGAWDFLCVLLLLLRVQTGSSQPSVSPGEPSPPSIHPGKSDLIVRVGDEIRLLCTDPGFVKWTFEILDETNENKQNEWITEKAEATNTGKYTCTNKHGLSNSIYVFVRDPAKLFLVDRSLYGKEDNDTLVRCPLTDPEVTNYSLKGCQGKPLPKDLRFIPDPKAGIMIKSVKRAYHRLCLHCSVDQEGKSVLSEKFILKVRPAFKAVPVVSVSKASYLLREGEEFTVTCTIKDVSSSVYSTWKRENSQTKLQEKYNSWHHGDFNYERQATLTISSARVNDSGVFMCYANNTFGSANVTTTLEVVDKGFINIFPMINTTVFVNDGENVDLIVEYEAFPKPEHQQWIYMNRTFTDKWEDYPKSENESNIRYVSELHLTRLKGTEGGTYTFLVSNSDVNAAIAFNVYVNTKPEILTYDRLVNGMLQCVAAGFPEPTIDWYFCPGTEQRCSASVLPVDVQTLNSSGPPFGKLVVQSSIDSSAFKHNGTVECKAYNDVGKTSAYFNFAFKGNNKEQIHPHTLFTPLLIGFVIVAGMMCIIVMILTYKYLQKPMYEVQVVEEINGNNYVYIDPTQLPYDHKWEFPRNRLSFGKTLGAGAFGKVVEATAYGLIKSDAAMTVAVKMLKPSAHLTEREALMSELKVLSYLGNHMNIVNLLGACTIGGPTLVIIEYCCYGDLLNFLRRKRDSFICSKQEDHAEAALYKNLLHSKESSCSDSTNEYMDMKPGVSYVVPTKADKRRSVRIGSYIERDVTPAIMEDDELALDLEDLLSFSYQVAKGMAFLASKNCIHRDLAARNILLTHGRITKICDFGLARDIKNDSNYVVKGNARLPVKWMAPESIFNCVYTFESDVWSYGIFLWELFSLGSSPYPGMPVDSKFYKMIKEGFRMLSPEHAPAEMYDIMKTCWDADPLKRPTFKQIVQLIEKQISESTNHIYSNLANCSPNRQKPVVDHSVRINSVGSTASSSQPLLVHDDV
T4 sequence (P10721 with tags, fused parts or gaps DEL557-558/V654A, form open): as the sequence (P10721 with tags, fused parts or gaps DEL557-558/T670I, form open) above, with V652A, I668T counted along it
T1 sequence (P10721 with tags, fused parts or gaps DEL557-558): as the sequence (P10721 with tags, fused parts or gaps DEL557-558/T670I, form open) above, with I668T counted along it
T2 sequence (P10721 with tags, fused parts or gaps DEL557-558/D816H, form open): as the sequence (P10721 with tags, fused parts or gaps DEL557-558/T670I, form open) above, with I668T, D814H counted along it

| SMILES | GI50 (BAF3 FL KIT EX11DEL) [nM] | GI50 [1] [nM] | GI50 [2] [nM] | GI50 [3] [nM] |
| --- | --- | --- | --- | --- |
| Cc1ccc(C(=O)Nc2cc(C(F)(F)F)ccn2)cc1C#Cc1cnc(NC(=O)N(C)C2CCC(O)CC2)s1 (stereo not shown) [I-22, 3-((2-(3-(4-hydroxycyclohexyl)-3-methylureido)thiazol-5-yl)ethynyl)-4-methyl-N-(4-(trifluoromethyl)pyridin-2-yl)benzamide] | < 10 | < 10 | < 10 | < 10 |
| Cc1ccc(C(=O)Nc2cc(C(F)(F)F)ccn2)cc1C#Cc1cnc(NC(=O)N2CCN(C)CC2)s1 [I-23, 4-methyl-N-(5-((2-methyl-5-((4-(trifluoromethyl)pyridin-2-yl)carbamoyl)phenyl)ethynyl)thiazol-2-yl)piperazine-1-carboxamide] | < 10 | 10 to 50 | < 10 | 10 to 50 |
| Cc1ccc(C(=O)Nc2cc(C(F)(F)F)ccn2)cc1C#Cc1cnc(NC(=O)N2CC(C)(O)C2)s1 [I-24, 3-hydroxy-3-methyl-N-(5-((2-methyl-5-((4-(trifluoromethyl)pyridin-2-yl)carbamoyl)phenyl)ethynyl)thiazol-2-yl)azetidine-1-carboxamide] | < 10 | < 10 | < 10 | < 10 |
| Cc1ccc(C(=O)Nc2cc(C(F)(F)F)ccn2)cc1C#Cc1cnc(NC(=O)N2CCC(C)CC2)s1 [I-25, 4-methyl-N-(5-((2-methyl-5-((4-(trifluoromethyl)pyridin-2-yl)carbamoyl)phenyl)ethynyl)thiazol-2-yl)piperidine-1-carboxamide] | 10 to 50 | 10 to 50 | 10 to 50 | 10 to 50 |
| Cc1ccc(C(=O)Nc2cc(C(F)(F)F)ccn2)cc1C#Cc1cnc(NC(=O)NCc2ccncc2)s1 [I-26, 4-methyl-3-((2-(3-(pyridin-4-ylmethyl)ureido)thiazol-5-yl)ethynyl)-N-(4-(trifluoromethyl)pyridin-2-yl)benzamide] | 10 to 50 | 10 to 50 | 10 to 50 | 10 to 50 |
| Cc1ccc(C(=O)Nc2cc(C(F)(F)F)ccn2)cc1C#Cc1cnc(NC(=O)N2CCN(CCO)CC2)s1 [I-27, 4-(2-hydroxyethyl)-N-(5-((2-methyl-5-((4-(trifluoromethyl)pyridin-2-yl)carbamoyl)phenyl)ethynyl)thiazol-2-yl)piperazine-1-carboxamide] | < 10 | 10 to 50 | < 10 | 10 to 50 |
| CNCCN(C)C(=O)Nc1ncc(C#Cc2cc(C(=O)Nc3cc(C(F)(F)F)ccn3)ccc2C)s1 [I-28, 4-methyl-3-((2-(3-methyl-3-(2-(methylamino)ethyl)ureido)thiazol-5-yl)ethynyl)-N-(4-(trifluoromethyl)pyridin-2-yl)benzamide] | < 10 | 10 to 50 | 10 to 50 | 10 to 50 |
| Cc1ccc(C(=O)Nc2cc(C(F)(F)F)ccn2)cc1C#Cc1cnc(NC(=O)N(C)C2CCN(C)CC2)s1 [I-29, 4-methyl-3-((2-(3-methyl-3-(1-methylpiperidin-4-yl)ureido)thiazol-5-yl)ethynyl)-N-(4-(trifluoromethyl)pyridin-2-yl)benzamide] | < 10 | < 10 | < 10 | 10 to 50 |
| Cc1ccc(C(=O)Nc2cc(C(F)(F)F)ccn2)cc1C#Cc1cnc(NC(=O)N2CCNCC2)s1 [I-30, N-(5-((2-methyl-5-((4-(trifluoromethyl)pyridin-2-yl)carbamoyl)phenyl)ethynyl)thiazol-2-yl)piperazine-1-carboxamide] | < 10 | 10 to 50 | 10 to 50 | 10 to 50 |
| Cc1ccc(C(=O)Nc2cc(C(F)(F)F)ccn2)cc1C#Cc1cnc(NC(=O)NCCCCN)s1 [I-31, 3-((2-(3-(4-aminobutyl)ureido)thiazol-5-yl)ethynyl)-4-methyl-N-(4-(trifluoromethyl)pyridin-2-yl)benzamide] | 10 to 50 | 50 to 100 | 10 to 50 | 50 to 100 |
| Cc1ccc(C(=O)Nc2cc(C(F)(F)F)ccn2)cc1C#Cc1cnc(NC(=O)N(C)C2CCCN(C)C2)s1 (stereo not shown) [I-32, 4-methyl-3-((2-(3-methyl-3-(1-methylpiperidin-3-yl)ureido)thiazol-5-yl)ethynyl)-N-(4-(trifluoromethyl)pyridin-2-yl)benzamide] | < 10 | 10 to 50 | 10 to 50 | 10 to 50 |
| Cc1ccc(C(=O)Nc2cc(C(F)(F)F)ccn2)cc1C#Cc1cnc(NC(=O)N(C)C2CCC(N)CC2)s1 (stereo not shown) [I-33, 3-((2-(3-(4-aminocyclohexyl)-3-methylureido)thiazol-5-yl)ethynyl)-4-methyl-N-(4-(trifluoromethyl)pyridin-2-yl)benzamide] | 10 to 50 | 50 to 100 | 10 to 50 | 50 to 100 |
| Cc1ccc(C(=O)Nc2cc(C(F)(F)F)ccn2)cc1C#Cc1cnc(NC(=O)N2CCOC(CN(C)C)C2)s1 (stereo not shown) [I-34, 2-((dimethylamino)methyl)-N-(5-((2-methyl-5-((4-(trifluoromethyl)pyridin-2-yl)carbamoyl)phenyl)ethynyl)thiazol-2-yl)morpholine-4-carboxamide] | < 10 | 10 to 50 | 10 to 50 | 10 to 50 |
| Cc1ccc(C(=O)Nc2cc(C(F)(F)F)ccn2)cc1C#Cc1cnc(NC(=O)N2CCOCC2)s1 [I-35, N-(5-((2-methyl-5-((4-(trifluoromethyl)pyridin-2-yl)carbamoyl)phenyl)ethynyl)thiazol-2-yl)morpholine-4-carboxamide] | < 10 | < 10 | < 10 | 10 to 50 |
| Cc1ccc(C(=O)Nc2cc(C(F)(F)F)ccn2)cc1C#Cc1cnc(NC(=O)NCCCN)s1 [I-36, 3-((2-(3-(3-aminopropyl)ureido)thiazol-5-yl)ethynyl)-4-methyl-N-(4-(trifluoromethyl)pyridin-2-yl)benzamide] | < 10 | 10 to 50 | 10 to 50 | 10 to 50 |
| CC(=O)N1CCN(C(=O)Nc2ncc(C#Cc3cc(C(=O)Nc4cc(C(F)(F)F)ccn4)ccc3C)s2)CC1 [I-37, 4-acetyl-N-(5-((2-methyl-5-((4-(trifluoromethyl)pyridin-2-yl)carbamoyl)phenyl)ethynyl)thiazol-2-yl)piperazine-1-carboxamide] | < 10 | < 10 | < 10 | < 10 |
| Cc1ccc(C(=O)Nc2cc(C(F)(F)F)ccn2)cc1C#Cc1cnc(NC(=O)NCCN)s1 [I-38, 3-((2-(3-(2-aminoethyl)ureido)thiazol-5-yl)ethynyl)-4-methyl-N-(4-(trifluoromethyl)pyridin-2-yl)benzamide] | < 10 | 50 to 100 | 50 to 100 | 50 to 100 |
| Cc1ccc(C(=O)Nc2cc(C(F)(F)F)ccn2)cc1C#Cc1cnc(NC(=O)N(C)C2CN(C)C2)s1 [I-39, 4-methyl-3-((2-(3-methyl-3-(1-methylazetidin-3-yl)ureido)thiazol-5-yl)ethynyl)-N-(4-(trifluoromethyl)pyridin-2-yl)benzamide] | 10 to 50 | 100 to 10000 | 100 to 10000 | 100 to 10000 |
| Cc1ccc(C(=O)Nc2cc(C(F)(F)F)ccn2)cc1C#Cc1cnc(NC(=O)N2CCC(N(C)C)C2)s1 (stereo not shown) [I-40, 3-(dimethylamino)-N-(5-((2-methyl-5-((4-(trifluoromethyl)pyridin-2-yl)carbamoyl)phenyl)ethynyl)thiazol-2-yl)pyrrolidine-1-carboxamide] | < 10 | 10 to 50 | < 10 | 10 to 50 |
| Cc1ccc(C(=O)Nc2cc(C(F)(F)F)ccn2)cc1C#Cc1cnc(NC(=O)N2CCC(N3CCN(C)CC3)CC2)s1 [I-41, N-(5-((2-methyl-5-((4-(trifluoromethyl)pyridin-2-yl)carbamoyl)phenyl)ethynyl)thiazol-2-yl)-4-(4-methylpiperazin-1-yl)piperidine-1-carboxamide] | < 10 | 10 to 50 | 10 to 50 | 10 to 50 |
| CNC(=O)Nc1ncc(C#Cc2ccc(F)c(C(=O)Nc3cc(C(F)(F)F)ccn3)c2)s1 [I-42, 2-fluoro-5-((2-(3-methylureido)thiazol-5-yl)ethynyl)-N-(4-(trifluoromethyl)pyridin-2-yl)benzamide] | < 10 | 100 to 10000 | 100 to 10000 | 100 to 10000 |
| NC(=O)Nc1ncc(C#Cc2ccc(F)c(C(=O)Nc3cc(C(F)(F)F)ccn3)c2)s1 [I-43, 2-fluoro-N-(4-(trifluoromethyl)pyridin-2-yl)-5-((2-ureidothiazol-5-yl)ethynyl)benzamide] | < 10 | 100 to 10000 | 100 to 10000 | 100 to 10000 |
